Reference: PubChem BioAssay AID256 (DTP/NCI, 2004)
Where “and” joins values, the source holds several entries; their conditions need not be identical. Equal entries are not always repeated. Toxic doses and inconclusive results are not listed.

Test system: CD2F1 mice, L1210 leukemia ip, survival T/C
Assay: NCI In Vivo Anticancer Drug Screen. Data for tumor model L1210 Leukemia (intraperitoneal) in CD2F1 (CDF1) mice
Details: higher = longer survival
In short: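 Each value reflects a quotient of treated over vehicle control outcomes in mice with a transplanted tumor.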

[1] = endpoint: mean survival time, dose: 100.0 mg/kg/injection, schedule: Q04DX003 (ip), vehicle: saline with Tween-80
[2] = endpoint: mean survival time, dose: 200.0 mg/kg/injection, schedule: Q04DX003 (ip), vehicle: saline with Tween-80
[3] = endpoint: mean survival time, dose: 25.0 mg/kg/injection, schedule: Q01DX009 (ip), vehicle: saline
[4] = endpoint: mean survival time, dose: 25.0 mg/kg/injection, schedule: Q01DX001 (ip), vehicle: saline
[5] = endpoint: mean survival time, dose: 100.0 mg/kg/injection, schedule: Q01DX009 (ip), vehicle: saline
[6] = endpoint: mean survival time, dose: 75.0 mg/kg/injection, schedule: Q01DX001 (ip), vehicle: saline
[7] = endpoint: mean survival time, dose: 150.0 mg/kg/injection, schedule: Q01DX001 (ip), vehicle: saline
[8] = endpoint: mean survival time, dose: 100.0 mg/kg/injection, schedule: Q01DX009 (ip), vehicle: saline with Tween-80
[9] = endpoint: mean survival time, dose: 200.0 mg/kg/injection, schedule: Q01DX009 (ip), vehicle: saline with Tween-80
[10] = endpoint: mean survival time, dose: 400.0 mg/kg/injection, schedule: Q01DX009 (ip), vehicle: saline with Tween-80
[11] = endpoint: mean survival time, dose: 400.0 mg/kg/injection, schedule: Q04DX003 (ip), vehicle: saline with Tween-80
[12] = endpoint: mean survival time, dose: 100.0 mg/kg/injection, schedule: Q01DX001 (ip), vehicle: saline with Tween-80
[13] = endpoint: mean survival time, dose: 200.0 mg/kg/injection, schedule: Q01DX001 (ip), vehicle: saline with Tween-80
[14] = endpoint: mean survival time, dose: 400.0 mg/kg/injection, schedule: Q01DX001 (ip), vehicle: saline with Tween-80

## O=c1o[nH]c(-c2ccccc2)c1-c1ccccc1
endpoint: mean survival time, dose: 50.0 mg/kg/injection, schedule: Q04DX003 (ip), vehicle: saline with Tween-80
  T/C: 95 % of control
[1]
  T/C: 98 % of control
[2]
  T/C: 106 % of control

## CCCN(CCC)C(=O)C(=O)OCC
endpoint: mean survival time, dose: 6.25 mg/kg/injection, schedule: Q01DX009 (ip), vehicle: saline
  T/C: 90 % of control
endpoint: mean survival time, dose: 12.5 mg/kg/injection, schedule: Q01DX009 (ip), vehicle: saline
  T/C: 96 % of control
[3]
  T/C: 93 % of control

## CN(C)N=Nc1ccccc1C(=O)NC#N
endpoint: mean survival time, dose: 9.38 mg/kg/injection, schedule: Q01DX009 (ip), vehicle: Klucel (hydroxypropylcellulose) (HPC)
  T/C: 101 % of control and 103 % of control and 104 % of control

## CC(Cl)(C(Cl)Cl)C(F)(F)F (centres undefined)
[4]
  T/C: 102 % of control
[3]
  T/C: 98 % of control
endpoint: mean survival time, dose: 50.0 mg/kg/injection, schedule: Q01DX001 (ip), vehicle: saline
  T/C: 107 % of control
endpoint: mean survival time, dose: 50.0 mg/kg/injection, schedule: Q01DX009 (ip), vehicle: saline
  T/C: 98 % of control
endpoint: mean survival time, dose: 100.0 mg/kg/injection, schedule: Q01DX001 (ip), vehicle: saline
  T/C: 104 % of control and 108 % of control
[5]
  T/C: 98 % of control

## COc1cc2c(cc1OC)C13CCN4CC5=CCOC(CC(=O)O)C(C5CC41)C3N2 (centres undefined)
endpoint: mean survival time, dose: 75.0 mg/kg/injection, schedule: Q01DX001 (ip), vehicle: other
  T/C: 98 % of control
[6]
  T/C: 101 % of control
[7]
  T/C: 97 % of control

## N#C/C(=C1C=C/C(=N/O)C(Br)=C/1)c1ccccc1
[8]
  T/C: 108 % of control
[9]
  T/C: 96 % of control
[10]
  T/C: 95 % of control

## COc1cccc2c1C(=O)c1c(OC)cccc1C2=O
endpoint: mean survival time, dose: 25.0 mg/kg/injection, schedule: Q01DX005 (ip), vehicle: other
  T/C: 104 % of control
endpoint: mean survival time, dose: 50.0 mg/kg/injection, schedule: Q01DX005 (ip), vehicle: other
  T/C: 101 % of control
endpoint: mean survival time, dose: 100.0 mg/kg/injection, schedule: Q01DX005 (ip), vehicle: other
  T/C: 101 % of control
endpoint: mean survival time, dose: 200.0 mg/kg/injection, schedule: Q01DX005 (ip), vehicle: other
  T/C: 97 % of control
endpoint: mean survival time, dose: 400.0 mg/kg/injection, schedule: Q01DX005 (ip), vehicle: other
  T/C: 93 % of control

## O=NN(CCCl)C(=O)NC1C(O)C(O)C(O)C(O)C1O (centres undefined)
endpoint: mean survival time, dose: 13.0 mg/kg/injection, schedule: Q01DX001 (ip), vehicle: saline
  T/C: 167 % of control and 220 % of control
endpoint: mean survival time, dose: 20.0 mg/kg/injection, schedule: Q01DX001 (ip), vehicle: saline
  T/C: 173 % of control and 227 % of control
[4]
  T/C: 255 % of control
endpoint: mean survival time, dose: 30.0 mg/kg/injection, schedule: Q01DX001 (ip), vehicle: saline
  T/C: 271 % of control and 282 % of control
endpoint: mean survival time, dose: 44.0 mg/kg/injection, schedule: Q01DX001 (ip), vehicle: saline
  T/C: 197 % of control

## O=C(C1CC=C2c3ccccc3CCC2C1C(=O)N1CCCCC1)N1CCCCC1 (centres undefined)
[6]
  T/C: 104 % of control
[7]
  T/C: 98 % of control
endpoint: mean survival time, dose: 300.0 mg/kg/injection, schedule: Q01DX001 (ip), vehicle: saline
  T/C: 107 % of control

## CCN(CC)CCNc1ccc(C)c2sc3ccccc3c(=O)c12
endpoint: mean survival time, dose: 7.5 mg/kg/injection, schedule: Q01DX005 (ip), vehicle: water
  T/C: 103 % of control
endpoint: mean survival time, dose: 15.0 mg/kg/injection, schedule: Q01DX005 (ip), vehicle: water
  T/C: 104 % of control
endpoint: mean survival time, dose: 25.0 mg/kg/injection, schedule: Q01DX007 (ip), vehicle: saline
  T/C: 121 % of control
[3]
  T/C: 118 % of control
endpoint: mean survival time, dose: 25.0 mg/kg/injection, schedule: Q03DX003 (ip), vehicle: saline
  T/C: 107 % of control
endpoint: mean survival time, dose: 25.0 mg/kg/injection, schedule: Q04DX003 (ip), vehicle: saline
  T/C: 107 % of control
endpoint: mean survival time, dose: 30.0 mg/kg/injection, schedule: Q01DX005 (ip), vehicle: water
  T/C: 106 % of control
endpoint: mean survival time, dose: 50.0 mg/kg/injection, schedule: Q03DX003 (ip), vehicle: saline
  T/C: 112 % of control
endpoint: mean survival time, dose: 50.0 mg/kg/injection, schedule: Q04DX003 (ip), vehicle: saline
  T/C: 114 % of control
endpoint: mean survival time, dose: 100.0 mg/kg/injection, schedule: Q01DX007 (ip), vehicle: saline
  T/C: 163 % of control
[5]
  T/C: 171 % of control
endpoint: mean survival time, dose: 120.0 mg/kg/injection, schedule: Q01DX005 (ip), vehicle: water
  T/C: 110 % of control
endpoint: median survival time, dose: 6.25 mg/kg/injection, schedule: Q01DX009 (ip), vehicle: water
  T/C: 116 % of control
endpoint: median survival time, dose: 12.5 mg/kg/injection, schedule: Q01DX009 (ip), vehicle: water
  T/C: 121 % of control
endpoint: median survival time, dose: 25.0 mg/kg/injection, schedule: Q01DX009 (ip), vehicle: saline with Tween-80
  T/C: 114 % of control
endpoint: median survival time, dose: 25.0 mg/kg/injection, schedule: Q01DX009 (ip), vehicle: saline
  T/C: 116 % of control and 120 % of control and 100 % of control
endpoint: median survival time, dose: 50.0 mg/kg/injection, schedule: Q01DX009 (ip), vehicle: water
  T/C: 165 % of control
endpoint: median survival time, dose: 100.0 mg/kg/injection, schedule: Q01DX009 (ip), vehicle: saline with Tween-80
  T/C: 198 % of control
endpoint: median survival time, dose: 100.0 mg/kg/injection, schedule: Q01DX009 (ip), vehicle: water
  T/C: 112 % of control
endpoint: median survival time, dose: 200.0 mg/kg/injection, schedule: Q01DX009 (ip), vehicle: saline with Tween-80
  T/C: 118 % of control

## CCCN(CCC)c1c([N+](=O)[O-])cc(C(N)=O)cc1[N+](=O)[O-]
endpoint: mean survival time, dose: 12.5 mg/kg/injection, schedule: Q01DX009 (ip), vehicle: saline with Tween-80
  T/C: 96 % of control
endpoint: mean survival time, dose: 25.0 mg/kg/injection, schedule: Q01DX009 (ip), vehicle: saline with Tween-80
  T/C: 96 % of control
endpoint: mean survival time, dose: 50.0 mg/kg/injection, schedule: Q01DX009 (ip), vehicle: saline with Tween-80
  T/C: 90 % of control

## O=C(CCCl)Oc1ccc(Br)cc1
[8]
  T/C: 94 % of control
[1]
  T/C: 98 % of control
[9]
  T/C: 96 % of control
[2]
  T/C: 100 % of control
[10]
  T/C: 102 % of control
[11]
  T/C: 96 % of control

## CC(=O)OC1CCC2(C)C3CCC4(C)C(OC(=O)c5ccccc5)CCC4C3C3C(=O)OC32C1 (centres undefined)
[12]
  T/C: 91 % of control
[13]
  T/C: 90 % of control and 96 % of control
[14]
  T/C: 88 % of control

## C/C(=C\Cl)CN(C)C
endpoint: mean survival time, dose: 50.0 mg/kg/injection, schedule: Q01DX009 (ip), vehicle: acetone
  T/C: 97 % of control
endpoint: mean survival time, dose: 100.0 mg/kg/injection, schedule: Q01DX009 (ip), vehicle: acetone
  T/C: 103 % of control

## O.O.[Co].[Co].[NH-]CC[NH-].[NH-]CC[NH-].[NH-]CC[NH-].[NH-]CC[NH-]
endpoint: mean survival time, dose: 25.0 mg/kg/injection, schedule: Q04DX002 (ip), vehicle: saline
  T/C: 98 % of control
endpoint: mean survival time, dose: 50.0 mg/kg/injection, schedule: Q04DX002 (ip), vehicle: saline
  T/C: 106 % of control

## N#Cc1cccc(CN2CCCNCC2)c1
endpoint: mean survival time, dose: 12.5 mg/kg/injection, schedule: Q01DX009 (ip), vehicle: water
  T/C: 98 % of control
endpoint: mean survival time, dose: 25.0 mg/kg/injection, schedule: Q01DX009 (ip), vehicle: water
  T/C: 100 % of control
endpoint: mean survival time, dose: 50.0 mg/kg/injection, schedule: Q01DX009 (ip), vehicle: water
  T/C: 96 % of control
endpoint: mean survival time, dose: 100.0 mg/kg/injection, schedule: Q01DX009 (ip), vehicle: water
  T/C: 105 % of control

## CSc1ncc(Br)c(Sc2nc(N)nc3nc[nH]c23)n1
endpoint: mean survival time, dose: 2.2 mg/kg/injection, schedule: Q01DX001 (ip), vehicle: saline with Tween-80
  T/C: 123 % of control
endpoint: mean survival time, dose: 3.0 mg/kg/injection, schedule: Q01DX001 (ip), vehicle: saline with Tween-80
  T/C: 117 % of control
endpoint: mean survival time, dose: 3.4 mg/kg/injection, schedule: Q01DX001 (ip), vehicle: saline with Tween-80
  T/C: 123 % of control
endpoint: mean survival time, dose: 4.4 mg/kg/injection, schedule: Q01DX001 (ip), vehicle: saline with Tween-80
  T/C: 122 % of control

## CN(C)N=Nc1cn[nH]c1C(N)=O
endpoint: mean survival time, dose: 100.0 mg/kg/injection, schedule: Q01DX009 (ip), vehicle: Klucel (hydroxypropylcellulose) (HPC)
  T/C: 172 % of control

## CCC1(c2cccc([N+](=O)[O-])c2)OCCO1
[12]
  T/C: 94 % of control
[8]
  T/C: 102 % of control
[1]
  T/C: 102 % of control
[13]
  T/C: 94 % of control
[9]
  T/C: 110 % of control
[2]
  T/C: 107 % of control
[14]
  T/C: 94 % of control
[10]
  T/C: 103 % of control
[11]
  T/C: 102 % of control

## CC(C)(C=O)CNC(C)(C)C
[1]
  T/C: 105 % of control
[2]
  T/C: 96 % of control

## c1cc2c3c(cccc3c1)N=S=N2
[1]
  T/C: 89 % of control
[2]
  T/C: 89 % of control
[11]
  T/C: 86 % of control

## CC1=NCC[N-]C(C)(C)CC(C)=NCC[N-]C(C)(C)C1.[Ni+2].[O-][Cl+3]([O-])([O-])O
endpoint: mean survival time, dose: 100.0 mg/kg/injection, schedule: Q04DX003 (ip), vehicle: saline
  T/C: 96 % of control
endpoint: mean survival time, dose: 200.0 mg/kg/injection, schedule: Q04DX003 (ip), vehicle: saline
  T/C: 97 % of control

## Cc1cnc(O[Si](C)(C)C)nc1O[Si](C)(C)C
[8]
  T/C: 97 % of control
[1]
  T/C: 97 % of control
[9]
  T/C: 96 % of control
[2]
  T/C: 98 % of control
[10]
  T/C: 103 % of control
[11]
  T/C: 101 % of control
